Target: T1, FPRL-1 (Homo sapiens, UniProt P25090)
T1 construct: expressed in transfected cells
T1 sequence (P25090 1-351): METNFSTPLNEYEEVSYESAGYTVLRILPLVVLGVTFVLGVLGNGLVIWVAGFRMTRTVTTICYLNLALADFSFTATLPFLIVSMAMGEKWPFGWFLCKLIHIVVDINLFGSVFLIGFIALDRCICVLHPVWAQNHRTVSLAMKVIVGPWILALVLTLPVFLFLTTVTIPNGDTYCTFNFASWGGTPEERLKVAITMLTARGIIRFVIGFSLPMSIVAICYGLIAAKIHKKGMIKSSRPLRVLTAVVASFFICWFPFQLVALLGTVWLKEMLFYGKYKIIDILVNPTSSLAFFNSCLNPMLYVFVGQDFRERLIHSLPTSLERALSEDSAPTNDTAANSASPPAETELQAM
Assay: compound-induced calcium activity on FLIPR Tetra in CHO-Ga16 cells stably expressing FPRL1
Format: cell-based
Details: for FPRL-1 Ga16-CHO (eff): efficacy value in brackets under EC50; for EC50: tested at 0.61 to 10,000 nM
Procedure: CHO-Ga16 cells stably expressing FPRL1 were cultured in (F12, 10% FBS, 1% PSA, 400 μg/ml geneticin and 50 μg/ml hygromycin) and HEK-Gqi5 cells stable expressing FPR1 were cultured in (DMEM high glucose, 10% FBS, 1% PSA, 400 μg/ml geneticin and 50 μg/ml hygromycin). In general, the day before the experiment, 18,000 cells/well were plated in a 384-well clear bottom poly-d-lysine coated plate. The following day the screening compound-induced calcium activity was assayed on the FLIPR^Tetra. The drug plates were prepared in 384-well microplates using the EP3 and the MultiPROBE robotic liquid handling systems. Compounds were tested at concentrations ranging from 0.61 to 10,000 nM. Results are expressed as EC50 (nM) and efficacy values.

| Compound | FPRL-1 Ga16-CHO (eff) | EC50 [nM] |
| --- | --- | --- |
| CC(=O)c1ccc(NC(=O)Nc2ccc3c(c2)C(=O)N(CCCN)C(c2ccc(C#N)cc2)C3)cc1 (stereo not drawn) [Compound 1, 1-(4-acetylphenyl)-3-[2-(3-aminopropyl)-3-(4-cyanophenyl)-1-oxo-1,2,3,4-tetrahydroisoquinolin-7-yl]urea] | (1.00) | 40 |
| CS(=O)(=O)c1ccc(NC(=O)Nc2ccc3c(c2)C(=O)N(CCCN)[C@H](c2ccc(C#N)cc2)C3)cc1 [Compound 14, (S)-1-[2-(3-aminopropyl)-3-(4-cyanophenyl)-1-oxo-1,2,3,4-tetrahydroisoquinolin-7-yl]-3-[4-(methylsulfonyl)phenyl]urea] | (1.3) |  |
| CC(=O)c1ccc(NC(=O)Nc2ccc3c(c2)C(=O)N(CCc2c[nH]cn2)C(c2ccc(Cl)c(Cl)c2)C3)cc1 (stereo not drawn) [Compound 20, 1-(4-acetylphenyl)-3-{3-(3,4-dichlorophenyl)-2-[2-(1H-imidazol-4-yl)ethyl]-1-oxo-1,2,3,4-tetrahydroisoquinolin-7-yl}urea] | (1.04) | 28 |
| CCSc1ccc(NC(=O)Nc2ccc3c(c2)C(=O)N(CCCN)C(c2ccc(C#N)cc2)C3)cc1 (stereo not drawn) [Compound 9, 1-[2-(3-aminopropyl)-3-(4-cyanophenyl)-1-oxo-1,2,3,4-tetrahydroisoquinolin-7-yl]-3-[4-(ethylthio)phenyl]urea] | (1.0) | 23 |
| CC(=O)c1ccc(NC(=O)Nc2ccc3c(c2)C(=O)N(CCc2c[nH]cn2)C(c2ccc(Cl)nc2)C3)cc1 (stereo not drawn) [Compound 25, 1-(4-acetylphenyl)-3-{3-(6-chloropyridin-3-yl)-2-[2-(1H-imidazol-4-yl)ethyl]-1-oxo-1,2,3,4-tetrahydroisoquinolin-7-yl}urea] | (0.81) | 24 |
| N#Cc1ccc(C2Cc3ccc(NC(=O)Nc4ccc(C(F)(F)F)cc4)cc3C(=O)N2CCc2c[nH]cn2)cc1 (stereo not drawn) [Compound 19, 1-{3-(4-cyanophenyl)-2-[2-(1H-imidazol-4-yl)ethyl]-1-oxo-1,2,3,4-tetrahydroisoquinolin-7-yl}-3-[4-(trifluoromethyl)phenyl]urea] | (0.78) | 32 |
| CC1Cc2ccc(NC(=O)Nc3ccc(S(C)(=O)=O)cc3)cc2C(=O)N1CCCN (stereo not drawn) [Compound 17, 1-[2-(3-aminopropyl)-3-methyl-1-oxo-1,2,3,4-tetrahydroisoquinolin-7-yl]-3-[4-(methylsulfonyl)phenyl]urea] | (88) | 150 |
| C[S+]([O-])c1ccc(NC(=O)Nc2ccc3c(c2)C(=O)N(CCCN)C(c2ccc(C#N)cc2)C3)cc1 (stereo not drawn) [Compound 7, 1-[2-(3-aminopropyl)-3-(4-cyanophenyl)-1-oxo-1,2,3,4-tetrahydroisoquinolin-7-yl]-3-[4-(methylsulfinyl)phenyl]urea] | (0.92) |  |
| C[S+]([O-])c1ccc(NC(=O)Nc2ccc3c(c2)C(=O)N(CCc2c[nH]cn2)C(c2ccc(C#N)cc2)C3)cc1 (stereo not drawn) [Compound 29, 1-{3-(4-cyanophenyl)-2-[2-(1H-imidazol-4-yl)ethyl]-1-oxo-1,2,3,4-tetrahydroisoquinolin-7-yl}-3-[4-(methylsulfinyl)phenyl]urea] | (0.96) | 22 |
| CS(=O)(=O)c1ccc(NC(=O)Nc2ccc3c(c2)C(=O)N(CCCN)[C@@H](c2ccc(C#N)cc2)C3)cc1 [Compound 15, (R)-1-[2-(3-aminopropyl)-3-(4-cyanophenyl)-1-oxo-1,2,3,4-tetrahydroisoquinolin-7-yl]-3-[4-(methylsulfonyl)phenyl]urea] | (0.90) | 29 |
| CSc1ccc(NC(=O)Nc2ccc3c(c2)C(=O)N(CCCN)[C@H](c2ccc(C#N)cc2)C3)cc1 [Compound 10, (S)-1-[2-(3-aminopropyl)-3-(4-cyanophenyl)-1-oxo-1,2,3,4-tetrahydroisoquinolin-7-yl]-3-[4-(methylthio)phenyl]urea] | (1.0) | 299 |
| N#Cc1ccc(C2Cc3ccc(NC(=O)Nc4ccc(Br)cc4)cc3C(=O)N2CCCN)cc1 (stereo not drawn) [Compound 6, 1-[2-(3-aminopropyl)-3-(4-cyanophenyl)-1-oxo-1,2,3,4-tetrahydroisoquinolin-7-yl]-3-(4-bromophenyl)urea] | (1.00) | 31 |
| N#Cc1ccc(C2Cc3ccc(NC(=O)Nc4ccc(C(F)(F)F)cc4)cc3C(=O)N2CCCN)cc1 (stereo not drawn) [Compound 4, 1-[2-(3-aminopropyl)-3-(4-cyanophenyl)-1-oxo-1,2,3,4-tetrahydroisoquinolin-7-yl]-3-[4-(trifluoromethyl)phenyl]urea] | (0.78) | 21 |

Now from value to compound:

| FPRL-1 Ga16-CHO (eff) | EC50 [nM] | Compound |
| --- | --- | --- |
| (0.83) | 19 | CSc1ccc(NC(=O)Nc2ccc3c(c2)C(=O)N(CCc2c[nH]cn2)C(c2ccco2)C3)cc1 (stereo not drawn) [Compound 23, 1-{3-(2-furyl)-2-[2-(1H-imidazol-4-yl)ethyl]-1-oxo-1,2,3,4-tetrahydroisoquinolin-7-yl}-3-[4-(methylthio)phenyl]urea] |
| (0.93) | 11.8 | C[S+]([O-])c1ccc(NC(=O)Nc2ccc3c(c2)C(=O)N(CCc2c[nH]cn2)C(c2ccc(F)cn2)C3)cc1 (stereo not drawn) [Compound 31, 1-{3-(5-fluoropyridin-2-yl)-2-[2-(1H-imidazol-4-yl)ethyl]-1-oxo-1,2,3,4-tetrahydroisoquinolin-7-yl}-3-[4-(methylsulfinyl)phenyl]urea] |
| (0.70) | 2.5 | CSc1ccc(NC(=O)Nc2ccc3c(c2)C(=O)N(CCCN)C(c2ccc(C#N)cc2)C3)cc1 (stereo not drawn) [Compound 5, 1-[2-(3-aminopropyl)-3-(4-cyanophenyl)-1-oxo-1,2,3,4-tetrahydroisoquinolin-7-yl]-3-[4-(methylthio)phenyl]urea] |
| (1.0) | 10.5 | CS(=O)(=O)c1ccc(NC(=O)Nc2ccc3c(c2)C(=O)N(CCc2c[nH]cn2)C(c2ccc(F)cn2)C3)cc1 (stereo not drawn) [Compound 32, 1-{3-(5-fluoropyridin-2-yl)-2-[2-(1H-imidazol-4-yl)ethyl]-1-oxo-1,2,3,4-tetrahydroisoquinolin-7-yl}-3-[4-(methylsulfonyl)phenyl]urea] |
| (0.97) | 3.3 | CSc1ccc(NC(=O)Nc2ccc3c(c2)C(=O)N(CCCN)[C@@H](c2ccc(C#N)cc2)C3)cc1 [Compound 11, (R)-1-[2-(3-aminopropyl)-3-(4-cyanophenyl)-1-oxo-1,2,3,4-tetrahydroisoquinolin-7-yl]-3-[4-(methylthio)phenyl]urea] |
| (1.00) | 20 | CS(=O)(=O)c1ccc(NC(=O)Nc2ccc3c(c2)C(=O)N(CCc2c[nH]cn2)C(c2ccc(C#N)cc2)C3)cc1 (stereo not drawn) [Compound 30, 1-{3-(4-cyanophenyl)-2-[2-(1H-imidazol-4-yl)ethyl]-1-oxo-1,2,3,4-tetrahydroisoquinolin-7-yl}-3-[4-(methylsulfonyl)phenyl]urea] |
| (0.99) | 9.5 | CS(=O)(=O)c1ccc(NC(=O)Nc2ccc3c(c2)C(=O)N(CCc2c[nH]cn2)C(c2ccc(Cl)cn2)C3)cc1 (stereo not drawn) [Compound 34, 1-{3-(5-chloropyridin-2-yl)-2-[2-(1H-imidazol-4-yl)ethyl]-1-oxo-1,2,3,4-tetrahydroisoquinolin-7-yl}-3-[4-(methylsulfonyl)phenyl]urea] |
| (0.86) | 10 | CS(=O)(=O)c1ccc(NC(=O)Nc2ccc3c(c2)C(=O)N(CCCN)C(c2ccc(C#N)cc2)C3)cc1 (stereo not drawn) [Compound 8, 1-[2-(3-aminopropyl)-3-(4-cyanophenyl)-1-oxo-1,2,3,4-tetrahydroisoquinolin-7-yl]-3-[4-(methylsulfonyl)phenyl]urea] |
| (0.80) | 11 | CC(=O)c1ccc(NC(=O)Nc2ccc3c(c2)C(=O)N(CCc2c[nH]cn2)C(c2ccc(C#N)cc2)C3)cc1 (stereo not drawn) [Compound 18, 1-(4-acetylphenyl)-3-{3-(4-cyanophenyl)-2-[2-(1H-imidazol-4-yl)ethyl]-1-oxo-1,2,3,4-tetrahydroisoquinolin-7-yl}urea] |
| (0.89) | 15 | CSc1ccc(NC(=O)Nc2ccc3c(c2)C(=O)N(CCCN)C(C)C3)cc1 (stereo not drawn) [Compound 16, 1-[2-(3-aminopropyl)-3-methyl-1-oxo-1,2,3,4-tetrahydroisoquinolin-7-yl]-3-[4-(methylthio)phenyl]urea] |
| (0.81) | 17 | CSc1ccc(NC(=O)Nc2ccc3c(c2)C(=O)N(CCc2c[nH]cn2)C(c2ccc(Cl)o2)C3)cc1 (stereo not drawn) [Compound 24, 1-{3-(5-chloro-2-furyl)-2-[2-(1H-imidazol-4-yl)ethyl]-1-oxo-1,2,3,4-tetrahydroisoquinolin-7-yl}-3-[4-(methylthio)phenyl]urea] |
| (0.89) | 6.3 | CSc1ccc(NC(=O)Nc2ccc3c(c2)C(=O)N(CCc2c[nH]cn2)C(c2ccc(Cl)nc2)C3)cc1 (stereo not drawn) [Compound 26, 1-{3-(6-chloropyridin-3-yl)-2-[2-(1H-imidazol-4-yl)ethyl]-1-oxo-1,2,3,4-tetrahydroisoquinolin-7-yl}-3-[4-(methylthio)phenyl]urea] |

Source: patent US8809367B2, “1-1-Oxo-1,2,3,4-tetrahydroisoquinolin-7-yl)urea derivatives as N-formyl peptide receptor like-1 (FPRL-1) receptor modulators” (Allergan, Inc., priority 2011, dated 2014)
